# Measured values reported in patent publication US6383479B1, “Neutrophil-activating factor” (Novartis AG, priority 1987, dated 2002).
# Starred links: 1 amine or outer side, 2 acyl side, 3 side chain; linkers in the order of their positions; H or OH if unused. Positions of bridges follow the written chain, without caps; N, C: chain ends. Non-standard residues stand in square brackets, D forms with d. Residues, ends and D or L forms follow the SMILES beside them. Chains are numbered I, II in the order given. Actinocin(9to1) = Cc1c2oc3c(C)ccc(C(=O)[*:1])c3nc-2c(C(=O)[*:2])c(N)c1=O; NMeV = CN[C@H](C(=O)O)C(C)C; Sar = CNCC(=O)O
# B1: C5a: anaphylatoxin (protein, UniProt P01031 678-751, looked up)
# C5a anaphylatoxin: TLQKKIEEIAAKYKHSVVKKCCYDGACVNNDETCEQRAARISLGPRCIKAFTECCVVASQLRANISHKDMQLGR
# modifications: C5a anaphylatoxin
# How the values were obtained:
# human neutrophils [1] = conditions: Wymann et al., J. Biol. Chem. 262 [1987] 12048; cited from earlier work
# human neutrophils [2] = experiment: superoxide formation (SOD-sensitive cytochrome c reduction) by human neutrophils; format: cell-based; conditions: 1 μm PAF for 2 minutes
# Protocol: a) Superoxide production: neutrophils (3×10^6 /ml) are preincubated at 37° with or without 1 μm PAF for 2 minutes and then stimulated with increasing amounts of NAF. Recordings of cytochrome c reduction following NAF addition are shown.
# Superoxide formation is measured at 37° as the SOD sensitive reduction of ferricytochrome c (M. Markert et al., Methods Enzymol. 132 [1984] 267). The assay mixture (800 μl) consists of 0.75×10^6 cells/ml PBS-BSA containing 85 μM cytochrome c. Absorbance changes are recorded in a Hewlett-Packard 8451A diode array spectrophotometer equipped with a thermostated seven-place cuvette exchanger. Table 4 documents the capacity of NAF to elicit the respiratory burst in human neutrophils: […]
# [3] = test system: New Zealand albino rabbits; experiment: neutrophil accumulation and plasma leakage in rabbit skin after intradermal injection; format: in vivo; conditions: 2 h; for effect on neutrophil accumulation induced by NAF: NAF 10^−9 moles; for effect on neutrophil accumulation induced by fMLP: fMLP 10^−9 moles
# Description: Inflammatory responses are examined in the skin of conscious 2.0 to 2.5 kg New Zealand albino rabbits. Erythrocytes in blood from donor rabbits are sedimented with hydroxyethyl cellulose (Polysciences, Warrington, Pa.) and neutrophils in the resultant leucocyte-rich plasma are purified (>94% neutrophils) by density gradient centrifugation on Percoll (Pharmacia, Uppsala, Sweden). Cells are resuspended in Ca^2+ and Mg^2+—free Tyrode's solution containing 10% platelet poor plasma to a concentration of 10^6 leukocytes/ml and labeled for 15 min at room temperature with 40 μCi ^111indium-oxine (Amersham) per 10^6 cells. The labeled cells are washed by centrifugation through 10% platelet-poor plasma and approximately 10^6 cells per recipient are mixed with 10 μCi ^125iodine-labeled human serum albumin (Amersham) and injected intravenously through the lateral ear vein of rabbits with inflammatory lesions under study. Intradermal injections of inflammatory agents are then made and animals are killed 2 h later in studies with actinomycin D and polymyxin B, and 4 h later in dose-response experiments. Midway through the period that radiolabeled cells are in circulation, a blood sample is collected and the specific activities of neutrophils and plasma in blood are determined. Radioactivity in inflammatory lesions at the end of each experiment are determined in a multichannel gamma counter, the activity in control skin sites is subtracted and the absolute number of neutrophils and volume of plasma accumulating in inflammatory lesions are calculated from the specific activities. Neutrophil numbers in inflammatory lesions are standardised between animals by expressing the results as cell number per 10^6 neutrophils circulating per ml peripheral blood, according to the method of Cybulsky et al., Am. J. Pathol. 124 [1986] 367.
# Recombinant NAF obtained as described under Example 19 is dissolved at 400 μg/ml in minimal essential medium (50 mM) plus 0.45 M NaCl (pH 6.5). Endotoxin (E. coli serotype 055:B5, Sigma, St. Louis, Mo.) is dissolved in pyrogen-free normal saline. fMLP is dissolved in dimethyl sulphoxide at 10^−2 M and diluted to working concentrations in PFS. Polymyxin B and actinomycin D are dissolved in 1 ml ethanol and diluted 20 fold by mixing with NAF, endotoxin or fMLP in PFS. In studies on inhibition of inflammatory responses 40 μg polymyxin B and 10^−7 moles actinomycin D are injected per skin site with […] endotoxin. In all experiments 0.2 ml of inflammatory agents are injected intradermally per site through 26 gauge needles, with 5 replicates of each treatment in each animal.
# human neutrophils [4] = experiment: hydrogen peroxide formation by chemiluminescence in human neutrophils; format: cell-based
# Protocol: b) H2O2-dependent chemiluminescence: the progress curves following stimulation with partially purified NAF and approximately equiactive concentrations of C5a and fMLP are shown on the left. The initial phase of the response is detailed on the right. The stimulants are added in 50 μl of PBS-BSA.
# Lower graphs: respiratory burst induced by natural (left) and recombinant (right) NAF. Neutrophils (10^6 cells/ml) are stimulated with 3, 10 and 30 nM NAF at time zero and hydrogen peroxide production is measured by chemiluminescence (M. P. Wymann et al., Anal. Biochem. 165 [1987] 371-378).
# The properties of NAF, fMLP and C5a as stimuli of the respiratory burst are compared by assessing the production of superoxide or hydrogen peroxide by the stimulated cells. Superoxide formation is determined as described in Example 13. Hydrogen peroxide formation is determined by chemiluminescence (M. P. Wymann et al., Anal. Biochem. 165 [1987] 371-378). The assay mixture consisting of PBS-BSA containing 0.1 M sodium azide, 0.01 mM luminol, 9 U/ml horseradish peroxidase and 10^6 neutrophils is preincubated for 10 min at 37° and the reaction is started by adding the stimulus via a microsyringe.
# Rabbit neutrophils = experiment: NAF-induced exocytosis in rabbit neutrophils (N-acetyl-β-glucosaminidase release); format: cell-based; conditions: stimulus 100.0 nM, 15 min, cytochalasin B pretreated; purified natural NAF
# Protocol: Rabbit neutrophils are isolated from peripheral blood (obtained from the ear vein or artery) by dextran sedimentation followed by Hypaque-Ficoll density gradient centrifugation. Purified natural NAF is used.
# Exocytosis conditions: 0.6×10^6 cells (in a total volume of 0.15 ml) pretreated with cytochalasin B for 5 min at 37° are stimulated with NAF (0.1-100 nM) or fMLP (100 nM) for 15 min. N-acetyl-β-glucosaminidase, an azurophil granule marker, is determined in the cell-free medium.
# human neutrophils [5] = experiment: stimulus-dependent exocytosis of granule contents by human neutrophils; format: cell-based; conditions: fMLP 0.1 μM
# Protocol: Neutrophils (5×10^6/ml) suspended in PBS/BSA are preincubated with or without cytochalasin B (5 μg/ml) at 37° for 5 min.
# Granule release is then initiated by adding the stimulus, e.g. NAF or a standard stimulus. The reaction is stopped 15 min later by rapid cooling in ice followed by centrifugation to sediment the cells. Vitamin B12-binding protein, β-glucuronidase and lactate dehydrogenase are determined in the cell-free media and cell pellets, and the release of these constituents is calculated in percent of the total cellular content (B. Dewalt and M. Baggiolini, Methods Enzymol. 132 [1986] 267).
# Natural and recombinant NAF are tested in parallel on human neutrophils. They elicit virtually identical changes in cytosolic free Ca^2+, yielding a maximum rise at a concentration as low as 3 nM (FIG. 15). A nearly identical concentration-dependent respiratory burst response is obtained with both preparations in the range of 1 to 30 nM as assessed by chemiluminescence. The equivalence between natural and recombinant NAF is also reflected by chemotaxis and exocytosis measurements. Chemotactic migration is observed between 0.1 and 10 nM with a maximum effect at 1 nM. (Table 6). With either peptide a significant release of vitamin B12-binding protein from the specific granules at 0.3 nM and of beta-glucuronidase from the azurophil granules at 1 nM is observed.
# human monocytes = experiment: NAF production by stimulated human mononuclear cells/monocytes (read out as elastase release); format: cell-based; conditions: mononuclear cell fraction; PHA 5 μg/ml or ConA 10 μg/ml
# Protocol: […] At various time intervals the media are collected, cleared by centrifugation (20000 rpm for 20 min. at 4° C.) and NAF activity is measured. Cells from a single donor; means of duplicate cultures.
# Human monocytes are isolated from buffy coats of donor blood (Swiss Red Cross Laboratory, Bern, Switzerland) by centrifugation through a Ficoll-Paque gradient. This method separates neutrophils from the so-called mononuclear cells, a mixture of monocytes (about 20%) and lymphocytes (about 80%). Three monocyte preparations are used: (i) the total mononuclear cell fraction, (ii) monocytes enriched from the mononuclear cell fraction by adherence, and (iii) 90% pure monocytes separated from the lymphocytes by centrifugal elutriation (G. Garotta et al., Biochem. Biophys. Res. Comm. 140 [1986] 948-954 and K. J. Clemetson et al., J. Exp. Med. 161 [1985] 972-983). […] At different times, aliquots of the culture media are sampled and NAF activity is determined as the capacity to induce the release of elastase from human neutrophils pretreated with cytochalasin B (B. Dewald et al., Biochem. Pharmacol. 36 [1987] 2505-2510).
# Mononuclear cell cultures (5×10^6 cells/ml) consisting of monocytes and lymphocytes in a ratio of approximately 1:5 produce NAF when stimulated with LPS (100 ng/ml). NAF accumulates in the medium over 24 h and the production levels off between 24 h and 48 h. […]
# neutrophils = experiment: sequential/repeated stimulation of neutrophils (desensitization, superoxide formation); format: cell-based, human; conditions: superoxide formation
# Protocol: a) Neutrophils (3×10^6 /ml) are preincubated at 37° C. for 5 min. and then stimulated with different agonists as indicated (arrows).
# b) Sequential or repeated stimulation with NAF and C5a. Conditions as in a).
# Arrows show addition of agonists as indicated. The concentration of C5a is 0.5 nM in a) and 0.2 nM in b), that of fMLP is 20 nM in both experiments. The agonists are added in 50 μl of PBS-BSA.
# On the other hand, when agonists acting on different receptors are used in sequence.(e.g. fMLP followed by C5a) these stimulations yield a normal response. Experiments of this type are therefore used to find out whether NAF acts by its own receptor or via a receptor also used by other agonists.
# [6] = exposure to fresh human serum, then activity (superoxide production); format: in vitro ADME; conditions: 15 minutes with fresh human serum
# Protocol: C5A and NAF are incubated for 15 minutes with fresh human serum or with PBS and the activity of the preparations is determined (superoxide production).
# Since C5a and NAF have similar effects on neutrophils, further experiments must be performed to discriminate entirely between the two. Samples of NAF and C5a are exposed to fresh human serum.
# [7] = with CB (cytochalasin B 5 μg/ml)
molecule,measurement,setting,value
"1-0-hexadecyl-2-0-acetyl-sn-glycero-3-phosphocholine [PAF, reference compound]","time between stimulus addition and onset of H2O2 production, as previously reported",human neutrophils [1],about 2 sec
same,effect of pretreatment of the cells with PAF on the superoxide response to NAF,human neutrophils [2],markedly enhanced
"Cc1c2oc3c(C)ccc(C(=O)N[C@@H]4C(=O)N[C@H](C(C)C)C(=O)N5CCC[C@H]5C(=O)N(C)CC(=O)N(C)[C@@H](C(C)C)C(=O)O[C@@H]4C)c3nc-2c(C(=O)N[C@@H]2C(=O)N[C@H](C(C)C)C(=O)N3CCC[C@H]3C(=O)N(C)CC(=O)N(C)[C@@H](C(C)C)C(=O)O[C@@H]2C)c(N)c1=O [actinomycin D] (I: T[dV]P[Sar][NMeV] / II: T[dV]P[Sar][NMeV]; ester I:1-I:C, II:1-II:C; linker I:N-II:N via Actinocin(9to1))",effect on neutrophil accumulation induced by NAF,[3]; actinomycin D 10^−7 moles/site,no effect
same,inhibition of neutrophil accumulation induced by endotoxin,"[3]; actinomycin D 10^−7 moles/site, endotoxin 10^−13 moles",90%
same,effect on neutrophil accumulation induced by fMLP,[3]; actinomycin D 10^−7 moles/site,no effect
"CSCC[C@H](NC=O)C(=O)N[C@@H](CC(C)C)C(=O)N[C@@H](Cc1ccccc1)C(=O)O [fMLP, N-formyl-L-methionyl-L-leucyl-L-phenylalanine, reference compound]",time between stimulus addition and onset of H2O2 production,human neutrophils [4],about 2 sec
same,N-acetyl-β-glucosaminidase,Rabbit neutrophils,181 pmol/min
same,Percent release of Vit. B12-binding protein,human neutrophils [5]; [7],35.6 ± 5.5%
same,Percent release of lactate dehydrogenase,human neutrophils [5]; [7],5.3 ± 1.6%
same,Percent release of β-glucuronidase,human neutrophils [5]; [7],12.1 ± 4.4%
same,Percent release of Vit. B12-binding protein,human neutrophils [5]; without CB,14.0 ± 0.9%
same,Percent release of lactate dehydrogenase,human neutrophils [5]; without CB,5.7 ± 1.1%
same,Percent release of β-glucuronidase,human neutrophils [5]; without CB,2.3 ± 0.8%
same,"time between stimulus addition and onset of H2O2 production, as previously reported",human neutrophils [1],about 2 sec
CCCCC/C=C\C[C@@H](O)/C=C/C=C/C=C\[C@@H](O)CCCC(=O)O [leukotriene B4],"time between stimulus addition and onset of H2O2 production, as previously reported",human neutrophils [1],about 2 sec
Polymyxin B,effect on neutrophil accumulation induced by NAF,[3]; polymyxin B 40 μg/site,without effect
same,inhibition of the response to endotoxin,"[3]; polymyxin B 40 μg/site, endotoxin 10^−13 moles",84%
same,effect on neutrophil accumulation induced by fMLP,[3]; polymyxin B 40 μg/site,without effect
concanavalin A [ConA],time at which maximum of NAF production is reached,human monocytes,about 24 h
phytohemagglutinin [PHA],time at which maximum of NAF production is reached,human monocytes,about 24 h
B1,time between stimulus addition and onset of H2O2 production,human neutrophils [4],about 2 sec
same,desensitization to a second stimulation with the same agonist,neutrophils,complete desensitization
same,"time between stimulus addition and onset of H2O2 production, as previously reported",human neutrophils [1],about 2 sec
same,effect of serum treatment on activity,[6],completely abolishes
